Values after ≈ are worked out from the molar mass of the structure shown.
Columns and labels:
[1] = tested on: Human immunodeficiency virus 1; assay: Antiviral activity against HIV1 infected in human CEM-SS cells assessed as inhibition of virus-induced cytopathic effect after 6 days by XTT-based assay; type: functional, organism-based; details: Human immunodeficiency virus 1, CEM-SS, 144 h
[2] = tested on: CEM-SS; assay: Cytotoxicity against human CEM-SS cells after 6 days by XTT-based assay; type: cell-based; details: 144 h
[3] = tested on: Human immunodeficiency virus 1; assay: Antiviral activity against HIV1 infected in human CEM-SS cells assessed as protection against viral infection after 6 days by XTT-based assay relative to control; type: functional

COc1cc2c(cc1CC=C(C)C)[C@@H]1Oc3cc(O)ccc3[C@@H]1CO2
EC50 [1]: 0.2 µg/mL (≈ 0.591 µM)
IC50 [2]: 3 µg/mL (≈ 8.87 µM)
Activity [3]: 80%

COc1ccc2c(c1CC=C(C)C)O[C@H]1c3ccc(O)cc3OC[C@@H]21 [SANDWICENSIN]
EC50 [1]: 2 µg/mL (≈ 5.91 µM)
IC50 [2]: 7 µg/mL (≈ 20.7 µM)
Activity [3]: 50%
